Our source for the Ki values is patent US11919901B2 (Syndax Pharmaceuticals, Inc., priority 2021, dated 2024).

The target in the test is Menin-MLL (Homo sapiens (Human), UniProt O00255). The test is described as follows: Determination of binding constants (Ki) to Menin-MLL (HTRF). To be noted: HTRF; 0.25 nM H-FL-Menin, 3.2 nM FITC-MLL-4-43, 24 hr incubation; read-out: Menin-MLL Ki HTRF Assay: Ki.
Menin-MLL, sequence (O00255 whole entry): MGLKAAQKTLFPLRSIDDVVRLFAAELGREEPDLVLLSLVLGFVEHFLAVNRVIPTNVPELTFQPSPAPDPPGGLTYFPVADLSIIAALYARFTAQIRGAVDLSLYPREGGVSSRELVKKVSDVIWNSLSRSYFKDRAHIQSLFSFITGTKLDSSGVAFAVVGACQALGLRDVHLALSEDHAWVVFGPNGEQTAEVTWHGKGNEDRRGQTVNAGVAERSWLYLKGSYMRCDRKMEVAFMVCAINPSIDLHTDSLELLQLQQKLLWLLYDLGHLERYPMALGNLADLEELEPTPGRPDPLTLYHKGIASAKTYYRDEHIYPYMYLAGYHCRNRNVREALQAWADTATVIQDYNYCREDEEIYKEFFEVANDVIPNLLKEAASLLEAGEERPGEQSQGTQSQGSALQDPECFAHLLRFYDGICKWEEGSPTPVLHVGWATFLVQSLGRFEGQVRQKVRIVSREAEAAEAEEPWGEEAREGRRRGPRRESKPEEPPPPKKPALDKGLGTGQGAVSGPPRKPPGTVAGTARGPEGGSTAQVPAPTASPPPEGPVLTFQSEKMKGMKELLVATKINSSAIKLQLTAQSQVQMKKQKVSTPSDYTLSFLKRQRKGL

For `CC(C)N(CC(F)(F)F)C(=O)c1cc(F)ccc1Oc1nncnc1N1CC2(CCN(C[C@@H]3CC[C@@H](NS(=O)(=O)C4CC4)CO3)CC2)C1` [Compound 191, 2-((5-(7-(((2S,5R)-5-(Cyclopropanesulfonamido)tetrahydro-2H-pyran-2-yl)methyl)-2,7-diazaspiro[3.5]nonan-2-yl)-1,2,4-triazin-6-yl)oxy)-5-fluoro-N-isopropyl-N-(2,2,2-trifluoroethyl)benzamide], the Ki was under 1 nM.

Turning to `CC(C)N(CC(F)(F)F)C(=O)c1cc(F)ccc1Oc1nncnc1N1CC2(CCN(C[C@@H]3CC[C@@H](NS(=O)(=O)c4cnn(C)c4)CO3)CC2)C1` [Compound 192, 5-Fluoro-N-isopropyl-2-((5-(7-(((2R,5S)-5-((1-methyl-1H-pyrazole)-4-sulfonamido)tetrahydro-2H-pyran-2-yl)methyl)-2,7-diazaspiro[3.5]nonan-2-yl)-1,2,4-triazin-6-yl)oxy)-N-(2,2,2-trifluoroethyl)benzamide], the Ki is under 1 nM.

In the case of `CCS(=O)(=O)N[C@@H]1CC[C@@H](CN2CCC3(CC2)CN(c2ncnnc2Oc2ccc(F)cc2C(=O)N(C(C)C)C(C)C)C3)OC1` [Compound 195, 2-((5-(7-(((2S,5R)-5-(Ethylsulfonamido)tetrahydro-2H-pyran-2-yl)methyl)-2,7-diazaspiro[3.5]nonan-2-yl)-1,2,4-triazin-6-yl)oxy)-5-fluoro-N,N-diisopropylbenzamide], the Ki was under 1 nM.

Turning to `CC(C)N(C(=O)c1cc(F)ccc1Oc1nncnc1N1CC2(CCN(C[C@@H]3CC[C@@H](NS(=O)(=O)c4cnn(C)c4)CO3)CC2)C1)C(C)C` [Compound 197, 5-Fluoro-N,N-diisopropyl-2-((5-(7-(((2S,5R)-5-((1-methyl-1H-pyrazole)-4-sulfonamido)tetrahydro-2H-pyran-2-yl)methyl)-2,7-diazaspiro[3.5]nonan-2-yl)-1,2,4-triazin-6-yl)oxy)benzamide], the Ki is under 1 nM.

Turning to `CC(C)N(C(=O)c1cc(F)ccc1Oc1cncnc1N1CC2(CCN(C[C@@H]3CC[C@@H](NS(=O)(=O)N4CCC[C@H]4C)CO3)CC2)C1)[C@@H]1CCOC1` [Compound 204, 5-Fluoro-N-isopropyl-2-((4-(7-(((2S,5R)-5-(((R)-2-methylpyrrolidine)-1-sulfonamido)tetrahydro-2H-pyran-2-yl)methyl)-2,7-diazaspiro[3.5]nonan-2-yl)pyrimidin-5-yl)oxy)-N-((R)-tetrahydrofuran-3-yl)benzamide], the Ki is under 1 nM.

For the molecule `CC(C)N(C(=O)c1cc(F)ccc1Oc1cncnc1N1CC2(CCN(C[C@@H]3CC[C@@H](NS(=O)(=O)N4CCC[C@@H]4C)CO3)CC2)C1)[C@@H]1CCOC1` [Compound 205, 5-Fluoro-N-isopropyl-2-((4-(7-(((2S,5R)-5-(((S)-2-methylpyrrolidine)-1-sulfonamido)tetrahydro-2H-pyran-2-yl)methyl)-2,7-diazaspiro[3.5]nonan-2-yl)pyrimidin-5-yl)oxy)-N-((R)-tetrahydrofuran-3-yl)benzamide], the Ki is under 1 nM.

`CC(C)N(C(=O)c1cc(F)ccc1Oc1cncnc1N1CC2(CCN(C[C@@H]3CC[C@@H](NS(=O)(=O)N4CCC[C@@H]4C)CO3)CC2)C1)C1CCOC1` (stereo partly drawn) [Compound 206, 5-Fluoro-N-isopropyl-2-((4-(7-(((2S,5R)-5-(((S)-2-methylpyrrolidine)-1-sulfonamido)tetrahydro-2H-pyran-2-yl)methyl)-2,7-diazaspiro[3.5]nonan-2-yl)pyrimidin-5-yl)oxy)-N-((S)-tetrahydrofuran-3-yl)benzamide]: the Ki is under 1 nM.

Take `CC(C)N(C(=O)c1cc(F)ccc1Oc1cncnc1N1CC2(CCN(C[C@@H]3CC[C@@H](NS(=O)(=O)N4CCC[C@H]4C)CO3)CC2)C1)C1CCOC1` (stereo partly drawn) [Compound 207, 5-Fluoro-N-isopropyl-2-((4-(7-(((2S,5R)-5-(((R)-2-methylpyrrolidine)-1-sulfonamido)tetrahydro-2H-pyran-2-yl)methyl)-2,7-diazaspiro[3.5]nonan-2-yl)pyrimidin-5-yl)oxy)-N-((S)-tetrahydrofuran-3-yl)benzamide]: the Ki was under 1 nM.
